One experiment deals with NCI-H1373 cells. Briefly: NCI-H1373 xenograft model. Particulars: for TGI % / Tumor volume at the end (Day 22): Day 22. The format is in vivo, female BALB/c mice. On the procedure: 4. NCI-H1373 xenograft model
NCI-H1373 cells (5.0E+06 cells) were injected subcutaneously into the right flank of female BALB/c mice (6-8 weeks) in a mixture with Matrigel (BD Bioscience). Mice were monitored daily and caliper measurements began when tumors became visible. Tumor volume was calculated by measuring two perpendicular diameters using the following formula: (L*w^2)/2 in which L and w refer to the length and width tumor diameter, respectively. When the average tumor volume reached 150-200 mm^3, mice were grouped (n=6/group) and treated with compounds. Tumor volume and mice weight was measured twice a week during treatment (˜3 weeks). Tumor growth inhibition rates were calculated by TGI %=(1−(Vt−Vt0)/(Vc−Vc0))*100%, where Vc, Vt are the mean tumor volume of control and treated groups at the end of the study, and Vc0 and Vt0 are the mean tumor volume of control and treated groups at the start.

Experiment [1] deals with NCI-H358 cells express KRAS G12C. The experiment in a line: Cell growth inhibition assay (CCK-8). The format is cell-based. The conditions noted are these: Homo sapiens, 144 h; NCI-H358, 6 days incubation. The essentials:
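Antiproliferative read-out: KRAS G12C-mutant NCI-H358 lung cancer cells (3000/well) exposed to compounds in RPMI 1640 with 10% FBS for 6 days at 37°C. Viability by CCK-8 (OD450) after 1.5-2 h; IC50 from 4-parameter logistic fit.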

Experiment [2] concerns Phospho-ERK1/2(THR202/TYR204) in NCI-H358 cells express KRAS G12C. Briefly: Phospho-ERK1/2(THR202/TYR204) HTRF assay. The experiment is classed as cell-based. Particulars: Homo sapiens; NCI-H358, 2 hours incubation; read-out: p-ERK inhibition in NCI-H358 IC50. The essentials: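 Compounds applied to attached cells for 2 h at 37 °C in RPMI 1640 with 0.1% FBS. Lysate phospho-ERK1/2 detected by HTRF after 4 h antibody incubation at 25 °C; IC50 from 4-parameter logistic fit.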

Another experiment addresses T1, KRAS G12C (Homo sapiens, UniProt P01116, G12C).
T1 construct: HIS-KRAS (G12C, aa 2-185, Sino biological); purchased Sino biological
Briefly: SOS1 catalyzed nucleotide exchange assay (TR-FRET). The format is biochemical. Particulars: GDP-loaded HIS-KRAS(G12C), 1 hour pre-incubation with compound. The method, boiled down:
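EDTA-stripped, GDP-loaded His-KRAS G12C (aa 2-185; 3 nM final) preincubated 1 h with compound, then SOS1 ExD (aa 564-1049; 2 μM) and BODIPY-FL GTP (80 nM) added for 4 h at 25 °C. TR-FRET via anti-His Tb cryptate (515/486 nm ratio); IC50 from 4-parameter logistic fit.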
On the technique in general: TR-FRET usually uses a lanthanide donor and a delayed reading to cut background.

This note sets out measurements from patent publication US20210040089A1, “KRAS MUTANT PROTEIN INHIBITORS” (Jacobio Pharmaceuticals Co., Ltd., priority 2019, published 2021).

T1 sequence (P01116 2-185 isoform P01116-2 G12C): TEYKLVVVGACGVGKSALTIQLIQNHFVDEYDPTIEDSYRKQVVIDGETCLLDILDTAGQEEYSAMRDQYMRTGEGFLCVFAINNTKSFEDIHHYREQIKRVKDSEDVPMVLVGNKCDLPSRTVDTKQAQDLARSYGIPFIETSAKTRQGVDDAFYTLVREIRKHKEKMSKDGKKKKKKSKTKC

Regarding `C=CC(=O)N1CCN(c2nc(OCC3(CN4CCCC4)CC3)nc3c2CCN(c2cccc4cccc(C)c24)C3)C[C@@H]1CC#N` [Compound 67, (S)-2-(1-acryloyl-4-(7-(8-methylnaphthalen-1-yl)-2-((1-(pyrrolidin-1-ylmethyl)cyclopropyl)methoxy)-5,6,7,8-tetrahydropyrido[3,4-d]pyrimidin-4-yl)piperazin-2-yl)acetonitrile], in the experiment on NCI-H1373 cells (Table 3, 10 mg/kg, QD), the TGI % was determined as 106.1%. The “Tumor volume at the end (Day 22)” value in the experiment on NCI-H1373 cells (Table 3, 10 mg/kg, QD) was found to be 114 mm^3. Further, the “Tumor volume at the start” value in the experiment with NCI-H1373 cells (Table 3, 10 mg/kg, QD) is recorded as 188 mm^3. In addition, the figures for the IC50 (in experiment [1]; in experiment [2]; on KRAS G12C) were 20.4 nM, 22.4 nM and 1.84 nM, respectively.
Take `Cc1cccc2cccc(N3CCc4c(nc(OCC5(CN(C)C)CC5)nc4N4CCN(C(=O)/C=C/CF)[C@@H](CC#N)C4)C3)c12` [Compound 68, (S,E)-2-(4-(2-((1-((dimethylamino)methyl)cyclopropyl)methoxy)-7-(8-methylnaphthalen-1-yl)-5,6,7,8-tetrahydropyrido[3,4-d]pyrimidin-4-yl)-1-(4-fluorobut-2-enoyl)piperazin-2-yl)acetonitrile]: the TGI % in the experiment with NCI-H1373 cells (Table 2, 10 mg/kg, BID) amounted to 82.6%. For the same compound, in the experiment on NCI-H1373 cells (Table 2, 10 mg/kg, BID), the “Tumor volume at the end (Day 22)” value worked out at 490 mm^3. For the same compound, the “Tumor volume at the start” value with NCI-H1373 cells (Table 2, 10 mg/kg, BID) was 191 mm^3. Moreover, the IC50 worked out at 51.5 nM in experiment [1], 69.2 nM in experiment [2] and 1.6 nM at KRAS G12C.
For the compound `C=CC(=O)N1CCN(c2nc(OCC3(CN4CCCC4)CC3)nc3c2CCN(c2cccc4cccc(C)c24)C3)CC1CC#N` (stereo not drawn) [Compound 56, 2-(1-acryloyl-4-(7-(8-methylnaphthalen-1-yl)-2-((1-(pyrrolidin-1-ylmethyl)cyclopropyl)methoxy)-5,6,7,8-tetrahydropyrido[3,4-d]pyrimidin-4-yl)piperazin-2-yl)acetonitrile], in the experiment with NCI-H1373 cells (Table 2, 10 mg/kg, BID), the TGI % was 102.5%, the “Tumor volume at the end (Day 22)” value stood at 148 mm^3 and the “Tumor volume at the start” value was found to be 191 mm^3. In experiment [1], this compound had an IC50 of 22.4 nM. Moreover, in experiment [2], the IC50 turned out to be 38.2 nM. Further, the IC50 at KRAS G12C is 3.19 nM.

A word on the IC50: it is the concentration at which inhibition is half-maximal.
